Values of other authors in US6528705B1, “Method for improving productivity of higher plants” (Nara Institute of Science and Technology, priority 1999, dated 2003).
Like-named read-outs stand apart in the source and are kept apart here.

How the values were obtained:
[1] = tested on: Synechococcus PCC 7942 FBPase-I (fructose-1,6-bisphosphatase/sedoheptulose-1,7-bisphosphatase, FBPase/SBPase), wild type, sequence number 1
[2] = tested on: Synechococcus PCC 7942 FBPase-I (fructose-1,6-bisphosphatase/sedoheptulose-1,7-bisphosphatase, FBPase/SBPase), wild type, sequence number 1; settings: purified enzyme
[3] = tested on: Synechococcus PCC 7942 FBPase-I (fructose-1,6-bisphosphatase/sedoheptulose-1,7-bisphosphatase, FBPase/SBPase), wild type, sequence number 1; settings: after the treatment by 1 mM H2O2; purified enzyme

For `O=P(O)(O)OC[C@H]1O[C@@](CO)(OP(=O)(O)O)[C@@H](O)[C@@H]1O` [fructose-2,6-P2], the “inhibition of enzyme activity” value ([1]; fructose-2,6-P2, concentration not given) is given as “not inhibited”.

For `Nc1ncnc2c1ncn2[C@@H]1O[C@H](COP(=O)(O)O)[C@@H](O)[C@H]1O` [AMP], the Ki ([1]; inhibition of the enzyme activity by AMP) is listed as 260 µM.

For `O=P(O)(O)OC[C@H]1OC(O)(COP(=O)(O)O)[C@@H](O)[C@@H]1O` (some centres unmarked) [Fru1,6-P2, fructose-1,6-bisphosphate], the Km ([2]; substrate Fru1,6-P2, read-out: Km for Fru1,6-P2) is given as 52 µM.

For `O=P(O)(O)OC[C@@H](O)[C@H]1OC(O)(COP(=O)(O)O)[C@@H](O)[C@@H]1O` (some centres unmarked) [Sed1,7-P2, sedoheptulose-1,7-bisphosphate], the Km ([2]; substrate Sed1,7-P2, read-out: Km for Sed1,7-P2) is listed as 118 µM.

In the case of `OO` [H2O2], the “native enzyme activity retained” value [3] is given as “more than 80%”.
